This is an account of results in PubChem BioAssay AID328 (DTP/NCI, 2004).

Where “and” joins values, the source holds several entries; their conditions need not be identical. Identical values can stand only once. Inconclusive results and toxic doses are left out.

For this assay, the system named is BDF1 mice, P388 leukemia ip, median survival T/C. Description: NCI In Vivo Anticancer Drug Screen. Data for tumor model P388 Leukemia (intraperitoneal) in B6D2F1 (BDF1) mice. Conditions: endpoint: median survival time, higher = longer survival. The essentials: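 Transplantable tumour in mice; compound vs vehicle dosing; survival scored; ratio of treated to control reported.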

Where [1] appears, read: dose: 12.5 mg/kg/injection, schedule: Q01DX009 (ip), vehicle: water.
Where [2] appears, read: dose: 25.0 mg/kg/injection, schedule: Q01DX009 (ip), vehicle: water.
Setting [3] is: dose: 12.5 mg/kg/injection, schedule: Q01DX009 (ip), vehicle: saline.
The mark [4] stands for this setting: dose: 25.0 mg/kg/injection, schedule: Q01DX009 (ip), vehicle: saline.
Setting [5] is: dose: 50.0 mg/kg/injection, schedule: Q01DX009 (ip), vehicle: saline.
Where [6] appears, read: dose: 25.0 mg/kg/injection, schedule: Q01DX009 (ip), vehicle: Klucel (hydroxypropylcellulose) (HPC).
[7] abbreviates: dose: 50.0 mg/kg/injection, schedule: Q01DX009 (ip), vehicle: Klucel (hydroxypropylcellulose) (HPC).
Where [8] appears, read: dose: 100.0 mg/kg/injection, schedule: Q01DX009 (ip), vehicle: saline.
Setting [9] is: dose: 200.0 mg/kg/injection, schedule: Q01DX009 (ip), vehicle: saline.
Where [10] appears, read: dose: 100.0 mg/kg/injection, schedule: Q04DX003 (ip), vehicle: saline.
The mark [11] stands for this setting: dose: 200.0 mg/kg/injection, schedule: Q04DX003 (ip), vehicle: saline.
[12] abbreviates: dose: 400.0 mg/kg/injection, schedule: Q04DX003 (ip), vehicle: saline.

As to `O=C(NO)Nc1nc(Cl)c(Cl)nc1Cl`, the T/C is, setting by setting: (dose: 3.12 mg/kg/injection, schedule: Q01DX009 (ip), vehicle: water) 104 % of control; (dose: 6.25 mg/kg/injection, schedule: Q01DX009 (ip), vehicle: water) 110 % of control; (dose: 6.25 mg/kg/injection, schedule: Q04DX003 (ip), vehicle: water) 98 % of control and 101 % of control; under setting [1], 110 % of control; (dose: 12.5 mg/kg/injection, schedule: Q04DX003 (ip), vehicle: water) 100 % of control and 113 % of control; under setting [2], 118 % of control. Further, the T/C is, setting by setting: (dose: 25.0 mg/kg/injection, schedule: Q04DX003 (ip), vehicle: water) 98 % of control and 118 % of control; (dose: 50.0 mg/kg/injection, schedule: Q04DX003 (ip), vehicle: water) 100 % of control and 109 % of control; (dose: 100.0 mg/kg/injection, schedule: Q01DX009 (ip), vehicle: water) 118 % of control; (dose: 100.0 mg/kg/injection, schedule: Q04DX003 (ip), vehicle: water) 109 % of control.
Turning to `O=C1c2ccc(Br)cc2-c2cc(Br)ccc21`, the T/C (dose: 100.0 mg/kg/injection, schedule: Q01DX009 (ip), vehicle: saline with Tween-80) was 99 % of control; the T/C (dose: 200.0 mg/kg/injection, schedule: Q01DX009 (ip), vehicle: saline with Tween-80) is 106 % of control; the T/C (dose: 400.0 mg/kg/injection, schedule: Q01DX009 (ip), vehicle: saline with Tween-80) is 101 % of control.
For `C1CCCC(NC2=NCCO2)CC1`, the T/C is 100 % of control (dose: 6.25 mg/kg/injection, schedule: Q04DX003 (ip), vehicle: saline with Tween-80); 100 % of control (dose: 12.5 mg/kg/injection, schedule: Q04DX003 (ip), vehicle: saline with Tween-80); 104 % of control (dose: 25.0 mg/kg/injection, schedule: Q04DX003 (ip), vehicle: saline with Tween-80).
`CCCn1/c(=N\N=O)sc2ccccc21`: the T/C (dose: 50.0 mg/kg/injection, schedule: Q04DX003 (ip), vehicle: saline sonified) is 100 % of control; the T/C (dose: 100.0 mg/kg/injection, schedule: Q04DX003 (ip), vehicle: saline sonified) is 100 % of control; the T/C (dose: 200.0 mg/kg/injection, schedule: Q04DX003 (ip), vehicle: saline sonified) is 95 % of control.
Turning to `CC(C)[N+](C)(C)CC(O)COc1cccc2ccccc12` (stereo not drawn), the T/C by setting is: under setting [3], 103 % of control and 112 % of control; under setting [4], 88 % of control and 109 % of control; under setting [5], 105 % of control and 123 % of control.
`Cc1cc(C)c(CN)cc1C`: the T/C by setting is: (dose: 5.0 mg/kg/injection, schedule: Q04DX003 (ip), vehicle: saline with Tween-80) 100 % of control; (dose: 10.0 mg/kg/injection, schedule: Q04DX003 (ip), vehicle: saline with Tween-80) 100 % of control; (dose: 20.0 mg/kg/injection, schedule: Q04DX003 (ip), vehicle: saline with Tween-80) 100 % of control.
In the case of `CCCCCCCCCCCCCCCCCC[N+]1([O-])CCCC1`, the T/C runs as follows: under setting [1], 100 % of control; under setting [2], 93 % of control; (dose: 50.0 mg/kg/injection, schedule: Q01DX009 (ip), vehicle: water) 93 % of control.
Turning to `O=c1cc(CO)occ1O.O=c1cc(CO)occ1O.[O]=[V]`, the T/C was 105 % of control (dose: 6.25 mg/kg/injection, schedule: Q01DX009 (ip), vehicle: saline); 94 % of control under setting [3]; 100 % of control under setting [4].
As for `COc1ccc(C2CCc3cc(OC)c(OC)cc3C2NC=O)cc1OC` (stereo not drawn), the T/C was 87 % of control (dose: 120.0 mg/kg/injection, schedule: Q01DX009 (ip), vehicle: saline with Tween-80) and 95 % of control (dose: 240.0 mg/kg/injection, schedule: Q01DX009 (ip), vehicle: saline with Tween-80).
Turning to `OCCC1CC1=C1CC1` (stereo not drawn), the T/C runs as follows: under setting [6], 105 % of control; under setting [7], 105 % of control; (dose: 100.0 mg/kg/injection, schedule: Q01DX009 (ip), vehicle: Klucel (hydroxypropylcellulose) (HPC)) 110 % of control.
Turning to `Oc1cc(O)c(CN(CCCl)CCCl)cc1CN(CCCl)CCCl`, the T/C is 118 % of control (dose: 1.0 mg/kg/injection, schedule: Q01DX009 (ip), vehicle: saline); 118 % of control (dose: 1.5 mg/kg/injection, schedule: Q01DX009 (ip), vehicle: saline); 157 % of control (dose: 2.4 mg/kg/injection, schedule: Q01DX009 (ip), vehicle: saline); 182 % of control (dose: 3.6 mg/kg/injection, schedule: Q01DX009 (ip), vehicle: saline); 166 % of control (dose: 5.4 mg/kg/injection, schedule: Q01DX009 (ip), vehicle: saline); 168 % of control (dose: 5.5 mg/kg/injection, schedule: Q01DX009 (ip), vehicle: saline). In addition, the T/C was 176 % of control (dose: 8.2 mg/kg/injection, schedule: Q01DX009 (ip), vehicle: saline); 165 % of control and 180 % of control (dose: 8.25 mg/kg/injection, schedule: Q01DX009 (ip), vehicle: saline); 163 % of control (dose: 9.9 mg/kg/injection, schedule: Q04DX003 (ip), vehicle: saline); 220 % of control (dose: 15.0 mg/kg/injection, schedule: Q04DX003 (ip), vehicle: saline); 194 % of control (dose: 16.0 mg/kg/injection, schedule: Q01DX009 (ip), vehicle: saline); 195 % of control and 200 % of control (dose: 18.75 mg/kg/injection, schedule: Q01DX009 (ip), vehicle: saline). For the same molecule, the T/C (dose: 23.0 mg/kg/injection, schedule: Q04DX003 (ip), vehicle: saline) is 160 % of control; the T/C under setting [4] was 162 % of control and 202 % of control and 222 % of control; the T/C (dose: 35.0 mg/kg/injection, schedule: Q01DX009 (ip), vehicle: saline) is 185 % of control; the T/C (dose: 35.0 mg/kg/injection, schedule: Q04DX003 (ip), vehicle: saline) was 190 % of control and 200 % of control; the T/C under setting [5] is 150 % of control; the T/C (dose: 55.0 mg/kg/injection, schedule: Q04DX003 (ip), vehicle: saline) was 250 % of control and 212 % of control. In addition, the T/C is, setting by setting: (dose: 80.0 mg/kg/injection, schedule: Q04DX003 (ip), vehicle: saline) 250 % of control and 208 % of control; under setting [8], 86 % of control; under setting [9], 177 % of control.
Regarding `CC(=O)OCc1cc2cc(O)ccc2nc1C`, the T/C is, setting by setting: under setting [4], 98 % of control; under setting [5], 107 % of control; (dose: 50.0 mg/kg/injection, schedule: Q04DX003 (ip), vehicle: saline) 111 % of control; under setting [8], 101 % of control; under setting [10], 110 % of control and 115 % of control; under setting [9], 116 % of control. Besides, the T/C was 92 % of control and 110 % of control under setting [11]; 91 % of control (dose: 400.0 mg/kg/injection, schedule: Q01DX009 (ip), vehicle: saline); 97 % of control and 104 % of control and 116 % of control under setting [12].
In the case of `COc1cc2c3c4c1OCc1c5c(cc(c1-4)CC3[N+](C)(C)CC2)OCO5` (stereo not drawn), the T/C is 105 % of control (dose: 6.25 mg/kg/injection, schedule: Q01DX001 (ip), vehicle: saline) and 99 % of control (dose: 12.5 mg/kg/injection, schedule: Q01DX001 (ip), vehicle: saline).
Regarding `CS(=O)(=O)Nc1ccc(Nc2c3ccccc3nc3ccccc23)cc1`, the T/C runs as follows: (dose: 15.0 mg/kg/injection, schedule: Q04DX003 (ip), vehicle: Klucel (hydroxypropylcellulose) (HPC)) 109 % of control; under setting [6], 95 % of control; under setting [7], 120 % of control; (dose: 50.0 mg/kg/injection, schedule: Q04DX003 (ip), vehicle: Klucel (hydroxypropylcellulose) (HPC)) 122 % of control; under setting [10], 200 % of control and 209 % of control; (dose: 150.0 mg/kg/injection, schedule: Q04DX003 (ip), vehicle: Klucel (hydroxypropylcellulose) (HPC)) 159 % of control. Also, the T/C is, setting by setting: (dose: 175.0 mg/kg/injection, schedule: Q04DX003 (ip), vehicle: saline) 237 % of control; under setting [11], 204 % of control and 223 % of control; (dose: 265.0 mg/kg/injection, schedule: Q04DX003 (ip), vehicle: saline) 250 % of control; under setting [12], 272 % of control and 95 % of control and 100 % of control.
